Where two headings read alike, the source gives them in different places. Oligonucleotides are written 5' to 3', each unit as a sugar letter and its base; * is a phosphorothioate linkage, no mark a phosphodiester; rarer units and linkages stand in square brackets, end groups in braces. Plain capitals give the bases only. d = 2'-deoxy (DNA)
Key:
Type in all cases: cell-based
SMAD7 protein = SMAD7 protein levels in human pDCs by FACS; conditions: 24 hrs or 48 h, any indicated concentration, no transfection
Description: PBMC from healthy donors were isolated from Buffy Coat blood (Blood Center of NY) by density-gradient centrifugation over Ficoll-Hypaque (Pharmacia Biotech). The cells were washed with PBS and re-suspended in RPMI-1640 Media with 10% inactivated fetal bovine serum, penicillin (100 U/ml) and streptomycin (100 μg/ml) and 2 mM L-glutamine (complete medium, Life Technologies). PBMC were treated with ODNs for indicated time periods at indicated concentrations, generally between 0.0001 μM and 10 μM, with CD40L plus anti-HisTag antibody, or with a vehicle control (endotoxin-free sterile water control). No transfection reagent was added with the ODNs.
SMAD7 protein levels were determined using standard FACS protocols. PBMCs were incubated on ice in the presence of Fc-Block (BD Pharmingen) for 20 minutes, washed, and incubated with antibodies specific for surface molecules or isotype-matched control mAbs. PECY-7-labeled anti-human CCR6 mAb, and PerCP-Cy5.5 labeled anti-human CD123 mAb were purchased from BD Biosciences. SMAD7 antibody was purchased from Biorbyt, Cambridge, UK. The stained cells were then subjected to FACS (FACSCanto, BD Biosciences) using the FACSDiva software. FACS analysis was performed using FlowJo software. Single, viable cells in the CCR6+CD123+ pDC gates were used for analysis of, e.g., SMAD7 protein levels.

TLR7 = target: T1, TLR7 (Homo sapiens, UniProt Q9NYK1); assay: Inhibition of TLR7 (imiquimod)-induced IFNα and IP10 (CXCL10) in PBMCs
T1 construct: endogenous in cells; host or cells: human PBMCs from healthy donors
T1 sequence (Q9NYK1 27-1049): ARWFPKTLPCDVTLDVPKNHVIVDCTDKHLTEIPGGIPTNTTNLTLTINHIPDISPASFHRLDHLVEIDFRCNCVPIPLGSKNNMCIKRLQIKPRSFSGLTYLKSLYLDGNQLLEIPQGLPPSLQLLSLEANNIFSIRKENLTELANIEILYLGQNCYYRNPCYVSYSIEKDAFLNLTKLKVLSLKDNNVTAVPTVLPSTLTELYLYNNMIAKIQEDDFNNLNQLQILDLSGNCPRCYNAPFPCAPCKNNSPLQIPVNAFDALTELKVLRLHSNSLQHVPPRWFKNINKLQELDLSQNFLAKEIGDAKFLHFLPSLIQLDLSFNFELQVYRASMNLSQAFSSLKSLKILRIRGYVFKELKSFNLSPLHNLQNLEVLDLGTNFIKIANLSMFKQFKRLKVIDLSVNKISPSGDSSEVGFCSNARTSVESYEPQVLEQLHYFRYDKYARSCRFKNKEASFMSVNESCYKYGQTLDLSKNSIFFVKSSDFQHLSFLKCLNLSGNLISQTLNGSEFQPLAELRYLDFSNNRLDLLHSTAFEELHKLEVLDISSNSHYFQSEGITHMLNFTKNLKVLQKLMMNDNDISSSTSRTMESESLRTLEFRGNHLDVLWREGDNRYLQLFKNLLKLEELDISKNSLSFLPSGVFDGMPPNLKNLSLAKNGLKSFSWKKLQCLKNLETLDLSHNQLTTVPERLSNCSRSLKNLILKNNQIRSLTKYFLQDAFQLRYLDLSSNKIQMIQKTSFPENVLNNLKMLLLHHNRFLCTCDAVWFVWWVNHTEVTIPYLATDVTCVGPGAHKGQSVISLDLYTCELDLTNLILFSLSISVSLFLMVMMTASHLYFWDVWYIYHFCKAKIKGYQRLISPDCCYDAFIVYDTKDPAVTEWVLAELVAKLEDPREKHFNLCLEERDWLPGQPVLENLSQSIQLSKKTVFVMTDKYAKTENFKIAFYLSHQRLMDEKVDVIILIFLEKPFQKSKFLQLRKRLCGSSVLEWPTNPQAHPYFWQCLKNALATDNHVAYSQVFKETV
Description: After 24 hours, the supernatant was harvested and tested for IFNα using MagPix Multi-Plex technology.

TLR8 = target: T2, TLR8 (Homo sapiens, UniProt Q9NR97); assay: TLR8 activation in HEK Blue TLR8 reporter cell line after lipo-transfection; conditions: HEK Blue TLR8 reporter cells, Lipofectamine transfection, FIG. 24
T2 construct: host or cells: HEK Blue TLR8 reporter cells (engineered HEK293, NF-κB inducible SEAP)
T2 sequence (Q9NR97 27-1041): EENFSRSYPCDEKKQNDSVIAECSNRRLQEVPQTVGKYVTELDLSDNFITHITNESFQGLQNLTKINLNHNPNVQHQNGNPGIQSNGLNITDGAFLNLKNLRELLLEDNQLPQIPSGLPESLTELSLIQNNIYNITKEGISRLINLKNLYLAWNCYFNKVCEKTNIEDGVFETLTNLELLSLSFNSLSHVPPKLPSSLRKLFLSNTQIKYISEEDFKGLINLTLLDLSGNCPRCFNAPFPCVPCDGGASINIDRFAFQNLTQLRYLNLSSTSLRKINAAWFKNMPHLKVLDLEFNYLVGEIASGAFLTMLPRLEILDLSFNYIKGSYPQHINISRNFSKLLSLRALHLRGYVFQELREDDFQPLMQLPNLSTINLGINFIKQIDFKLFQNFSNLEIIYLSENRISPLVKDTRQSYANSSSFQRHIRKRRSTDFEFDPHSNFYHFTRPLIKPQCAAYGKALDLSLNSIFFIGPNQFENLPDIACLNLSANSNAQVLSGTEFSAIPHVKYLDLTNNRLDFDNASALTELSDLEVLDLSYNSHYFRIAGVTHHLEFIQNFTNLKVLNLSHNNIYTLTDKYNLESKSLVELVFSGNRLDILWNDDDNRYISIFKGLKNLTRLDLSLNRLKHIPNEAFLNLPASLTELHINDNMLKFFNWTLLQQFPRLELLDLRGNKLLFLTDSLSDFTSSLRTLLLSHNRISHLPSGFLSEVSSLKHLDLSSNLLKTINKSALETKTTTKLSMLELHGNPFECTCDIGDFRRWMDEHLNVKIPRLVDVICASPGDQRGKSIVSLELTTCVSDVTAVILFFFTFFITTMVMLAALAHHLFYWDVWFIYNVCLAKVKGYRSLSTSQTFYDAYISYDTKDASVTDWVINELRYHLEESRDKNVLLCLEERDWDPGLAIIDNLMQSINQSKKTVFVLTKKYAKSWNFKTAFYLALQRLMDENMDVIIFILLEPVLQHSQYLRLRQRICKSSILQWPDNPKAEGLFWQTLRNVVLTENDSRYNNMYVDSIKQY
Description: Briefly, the reporter cells were engineered HEK293 cells that express a TLR8 gene and are specially designed for monitoring activity of NF-kβ inducible SEAP (secreted embryonic alkaline phosphatase). Reporter cells were seeded at a density of around 60000/well in 96 wells plates for 72 hrs. Growth medium was removed and Lipofectamine™ (Life Technologies, Foster City, Calif.) 2000/oligonucleotide complex and agonist was added and incubated for 6 hrs. The complex was removed and Detection Medium was added for 16 hrs of incubation. Optical density of SEAP was measured by spectrophotometer at […]. […] See also, Table 7.

Q: “ODN150: 5′-G*G*A*ACAGTTCGTCCAT*G*G*C-3′, PO except * = PS; antisense to p65 of NF-kB mRNA; tested clinically for ulcerative colitis (DNA dG*dG*dA*dAdCdAdGdTdTdCdGdTdCdCdAdT*dG*dG*dC)” was tested. Which “effect on SMAD7 protein levels” value (SMAD7 protein) did it give?
A: Its value is “do not affect”.

Q: And the IC50 (TLR7; Imiquimod 5 μg/ml 24 hours, FIGS. 8B, 9A, read-out: IC50, TLR7-mediated IFNα induction)?
A: Its IC50 is over 10 µM.

Q: And the IC50 (TLR7; imiquimod, FIG. 9B, read-out: IC50, TLR7-mediated IP10 (CXCL10) induction)?
A: The IC50 was over 10 µM.

Q: What about the TLR8 activation (TLR8) of the same substance?
A: Its TLR8 activation is “substantially induced”.

Source: patent US20180289692A1, “TLR MODULATORS AND METHODS OF USE” (CELGENE CORPORATION, priority 2015, published 2018)
